Reference: patent publication US5059589A, “Glaucoma treatment” (Abbott Laboratories, priority 1990, dated 1991)
Where a name gives a salt, the structure may show the parent alone.

Tested on: intraocular pressure in rabbits
Assay: Effects of topically administered renin inhibiting compounds on intraocular pressure of rabbits
Format: in vivo, Male albino, New Zealand rabbits
Conditions: topical 0.1 ml, 0.1% (w/v)
Experimental: The antiglaucoma activity of the compounds was tested by measuring the effect on intraocular pressure in rabbits as described by Tinjum, A.M., Acta Ophthalmologica, 50, 677 (1972). Male albino, New Zealand rabbits were placed in restraining devices and the intraocular pressure was measured with an applamatic tonometer. Exactly 0.1 ml of an isotonic saline solution containing a test compound was instilled into the conjuctival sac and the intraocular pressure was measured at 5, 15, 30, 60, 90, 120 and 180 minutes afterwards.

[1] = 15 minutes after administration
[2] = 30 minutes after administration
[3] = 60 minutes after administration
[4] = 90 minutes after administration
[5] = 120 minutes after administration
[6] = 180 minutes after administration

Compound	Mean Intraocular Pressure in mmHg (0 minutes after administration)	Mean Intraocular Pressure in mmHg (5 minutes after administration)	Mean Intraocular Pressure in mmHg [1]	Mean Intraocular Pressure in mmHg [2]	Mean Intraocular Pressure in mmHg [3]	Mean Intraocular Pressure in mmHg [4]	Mean Intraocular Pressure in mmHg [5]	Mean Intraocular Pressure in mmHg [6]
CC(C)C[C@H](O)[C@H](O)[C@H](CC1CCCCC1)NC(=O)[C@H](Cc1cnc[nH]1)NC(=O)[C@H](Cc1ccccc1)NC(=O)N1CCOCC1 [Compound I, (4-morpholinyl)carbonyl Phe-His amide of 2(S) amino-1 cyclohexyl-(3R),4(S)dihydroxy-6-methylheptane]	19.0 mmHg	18.2 mmHg	16.5 mmHg	12.2 mmHg	13.9 mmHg	15.1 mmHg	16.8 mmHg	20.4 mmHg
COc1ccc(C[C@H](NC(=O)CC(C)(C)N)C(=O)N[C@@H](Cc2cnc[nH]2)C(=O)N[C@@H](CC2CCCCC2)[C@@H](O)[C@@H](O)CC(C)C)cc1 [Compound II, H-((beta,betadimethyl)-beta-Ala)-(4 OCH3)Phe-His amide of 2(S)-amino-1-cyclohexyl-3(R),4(S) dihydroxy-6-methylheptane di-acetic acid salt]	18.4 mmHg	15.0 mmHg	13.5 mmHg	13.2 mmHg	13.4 mmHg	17.1 mmHg	19.0 mmHg	17.2 mmHg
CC(C)C[C@H](O)[C@H](O)[C@H](CC1CCCCC1)NC(=O)[C@H](Cc1cnc[nH]1)NC(=O)[C@H](Cc1ccccc1)NC(=O)N1CCC(O)CC1 [Compound III, (1-(4 hydroxypiperidinyl)carbonyl)-Phe-His amide of 2(S)-amino 1-cyclohexyl-3(R),4(S) dihydroxy 6-methylheptane]	19.1 mmHg	15.5 mmHg	12.4 mmHg	13.9 mmHg	14.9 mmHg	16.3 mmHg	17.8 mmHg	18.2 mmHg
CCN1C[C@@H]([C@H](O)[C@H](CC2CCCCC2)NC(=O)[C@H](Cc2cnc[nH]2)NC(=O)[C@@H](CC(=O)N(C)CCOCOCCOC)Cc2ccccc2)OC1=O [Compound IV, (2R)-2-benzyl-3-((2-methoxyethoxy-methoxyethyl)methylaminocarbonyl)propionyl-His amide of (2'S,1'R,5S)-3-ethyl-5-(1'-hydroxy 2'-amino-3'-cyclohexylpropyl) -oxazolidin-2-one]	18.2 mmHg	14.5 mmHg	13.0 mmHg	13.3 mmHg	14.2 mmHg	16.3 mmHg	14.9 mmHg	16.2 mmHg
C=C(C[C@H](O)[C@H](CC1CCCCC1)NC(=O)C(Cc1cnc[nH]1)NC(=O)C(Cc1ccccc1)NC(=O)OC(C)(C)C)C(=O)NCCC(C)C (stereo partly drawn) [Compound IX, Boc-Phe-His amide of (4S,5S) N-(3-methylbutyl)-5-amino-6-cyclohexyl-1-hexen-4-ol-2-carboxamide]	22.2 mmHg	22.5 mmHg	18.1 mmHg	15.8 mmHg	19.5 mmHg	22.4 mmHg	24.3 mmHg	24.2 mmHg
CC(C)(C)OC(=O)NC(Cc1ccccc1)C(=O)NC(Cc1cnc[nH]1)C(=O)NC(CC1CCCCC1)C(O)CSC1CCCCC1 (stereo not drawn) [Compound VI, Boc-Phe-His amide of 3-amino-4 cyclohexyl 1 cyclohexylmercapto-2-hydroxybutane]	21.0 mmHg	16.5 mmHg	16.5 mmHg	15.2 mmHg	14.7 mmHg	21.7 mmHg	22.4 mmHg	19.9 mmHg
CC(C)CC(=O)NCC[C@H](O)[C@H](CC1CCCCC1)NC(=O)C(Cc1cnc[nH]1)NC(=O)C(Cc1ccccc1)NC(=O)OC(C)(C)C (stereo partly shown) [Compound VIII]	19.4 mmHg	17.0 mmHg	16.5 mmHg	15.4 mmHg	18.4 mmHg	21.2 mmHg	20.5 mmHg	21.9 mmHg
CC(C)(C)OC(=O)NC(Cc1ccccc1)C(=O)NC(Cc1cnc[nH]1)C(=O)N[C@@H](CC1CCCCC1)[C@@H](O)[C@@H](O)CN (stereo partly drawn) [Compound X, Boc-Phe-His amide (4-amino) of (2S,3R,4S) 1,4-diamino-2,3-dihydroxy-5-cyclohexylpentane]	20.8 mmHg	20.6 mmHg	20.6 mmHg	15.9 mmHg	15.1 mmHg	19.1 mmHg	20.6 mmHg	21.7 mmHg
C=C(C[C@H](O)[C@H](O)[C@H](CC1CCCCC1)NC(=O)C(Cc1cnc[nH]1)NC(=O)C(Cc1ccccc1)NC(=O)OC(C)(C)C)C(=O)[O-].[Na+] (stereo partly drawn) [Compound XII, Boc-Phe-His amide of (4S,5R,6S)-6-amino-7-cyclohexyl-4,5-dihydroxy-1-hepten-2-oic acid sodium salt]	19.3 mmHg	12.5 mmHg	10.3 mmHg	12.4 mmHg	12.3 mmHg	12.3 mmHg	14.6 mmHg	16.3 mmHg
CC(C)CC(NC(=O)C(Cc1ccccc1)NC(=O)CCCC(=O)O)C(=O)N[C@@H](CC1CCCCC1)[C@@H](O)[C@@H](O)CC(C)C (stereo partly drawn) [Compound XIII, 4-Carboxybutyroyl-Phe-Leu amide of 2(S)-amino 1-cyclohexyl 3(R),4(S)-dihydroxy 6-methylheptane]	19.5 mmHg	17.6 mmHg	17.2 mmHg	15.6 mmHg	16.4 mmHg	16.3 mmHg	17.5 mmHg	15.3 mmHg
CCOC(=O)[C@H](C)NC(Cc1ccccc1)C(=O)NC(Cc1cnc[nH]1)C(=O)N[C@@H](CC1CCCCC1)[C@@H](O)[C@@H](O)CC(C)C (stereo partly drawn) [Compound XIV, (1(S)-(Ethoxycarbonyl)-ethyl)-Phe-His amide of 2 (S)-amino 1-cyclohexyl-3(R),4(S)-dihydroxy 6-methylheptane]	21.0 mmHg	16.8 mmHg	14.0 mmHg	15.1 mmHg	14.6 mmHg	16.4 mmHg	17.9 mmHg	19.6 mmHg
CC[C@@H]1C(=O)OC[C@@H]1Cc1cncn1C [Pilocarpine, reference compound]	17.6 mmHg	14.4 mmHg	13.0 mmHg	11.9 mmHg	13.0 mmHg	12.6 mmHg	16.4 mmHg	17.7 mmHg
Boc-Phe-His amide of (2S,4S,1'R,2'S)-2-(2-amino-7-cyclohexyl-4,5-dihydroxyheptan-2-oic acid sodium salt [Compound XI]	18.5 mmHg	13.4 mmHg	11.4 mmHg	10.6 mmHg	14.6 mmHg	16.1 mmHg	15.7 mmHg	19.0 mmHg
Boc-Phe-Histidinyl-4-amino-3-hydroxy 5-cyclohexylpentanoic acid amide of 2 methylbutylamine [Compound VII]	19.7 mmHg	17.2 mmHg	13.8 mmHg	14.3 mmHg	14.8 mmHg	19.3 mmHg	21.1 mmHg	22.7 mmHg
